Counter-ions that a name gives are not always drawn.
Columns and labels:
[1] = system: patients with unstable bladder; assay: Clinical study of urinary urgency, pollakiuria and urinary incontinence: patients with unstable bladder; type: in vivo, human
Protocol: (§1) A clinical study was conducted in patients with urinary urgency, pollakiuria and urinary incontinence under the conditions described below. The causes of urinary urgency, pollakiuria and urinary incontinence were separated into neurogenic bladder (due to cerebral infarction or brain disorder due to brain contusion, peripheral neuropathy, and spinal cord disorder due to cervical or lumbar spondylosis, spondylitis deformans, cervical or lumbar spondylolisthesis, disk herniation, spinal stenosis and the like) and unstable bladder (without accompanying neurological diseases, urinary tract infections and calculi, irradiation history to the lumbar part and tumors in the pelvic organs that can be causal disease of detrussor hyperactivity) and analyses were done.
(§2) Male and female patients aged 20 years or older who presented symptoms of urinary urgency, pollakiuria and urinary incontinence for 6 months or a longer period, the number of micturition per 24 hours was 8 on average or higher and satisfied at least one of the following conditions (1) and (2):
(§3) (1) Having at least one episode of urge urinary incontinence per 24 hours on average (2) Having at least one episode of urinary urgency per 24 hours on average. Patients with stress urinary incontinence, psychogenic pollakiuria and the like were excluded. In addition, patients with complication of urinary tract infection, urinary calculi, interstitial cystitis, bladder tumor and the like were also excluded.
(§4) Group P: Placebo (Sham drug) Group S5: 5 mg of solifenacin succinate (corresponding to 3.8 mg of solifenacin calculated as a free base) Group S10: 10 mg of solifenacin succinate (corresponding to 7.5 mg of solifenacin calculated as a free base) Group B: 20 mg of propiverine hydrochloride
(§5) All the groups received oral administration once daily for 12 weeks.

[2] = system: patients with neurogenic bladder; assay: Clinical study of urinary urgency, pollakiuria and urinary incontinence: patients with neurogenic bladder; type: in vivo, human; conditions: for improving effect on pollakiuria (in words) / improving effect on urinary incontinence (in words) / improving effect on urinary urgency (in words): solifenacin succinate 5 mg and 10 mg (Groups S5, S10), propiverine hydrochloride 20 mg (Group B), oral once daily for 12 weeks
Protocol: as §1, §2, §3, §4, §5

[3] = system: rat model of pollakiuria associated with neurogenic bladder due to cerebral infarction; assay: Rat model of pollakiuria due to cerebral infarction (cystometry); type: in vivo; conditions: male SD rats with cerebral infarction; intravenous administration; 30 minutes after drug administration
Protocol: Male SD rats (270 g to 320 g) were used for the test. After the rats were anesthetized with pentobarbital (50 mg/kg), a vesical fistula cannula and a cannula for drug administration were inserted and indwelled in the bladder and the jugular vein, respectively. A cannula was also inserted and indwelled in the common carotid vein for drug administration. Cerebral infarction was prepared according to the method of Longa et al. (Stroke, 1989, vol. 20, p. 84-91) 2 to 3 days after the surgery. Under halothane anesthesia, the cervical part was incised and a nylon thread was inserted from the common carotid artery to the internal carotid artery and the tip of the thread was carried forward to the origin of the middle cerebral artery and indwelled to induce cerebral ischemia. On the next day, neurological symptoms were observed and scored according to the method of Garcia, et al. (Stroke, 1995, Vol. 26, p. […]) and rats having moderate or more severe symptoms (with a score of 13 or less) were selected.
After awakening from anesthesia, the rats were maintained in Bollman cages. The vesical fistula cannula was connected to a syringe pump via a three-way stopcock and physiological saline was continuously infused into the bladder to induce micturition reflex. Another end of the three-way stopcock was connected to a pressure transducer to measure intravesical pressure. After stabilization of micturition reflex, the test drug was administered through the catheter for drug dose inserted in the external carotid vein.
The volume of physiological saline required to induce a single micturition reflex at 30 minutes after drug administration, that is, bladder capacity and the voided volume per micturition were measured. The results are shown as mean±standard error.
The Student's t-test was used for a comparison between the sham surgery group and the cerebral infarction group and the Dunnett's multiple comparison test was used for a comparison between the group receiving drug administration and the group not receiving drug administration in the cerebral infarction group.

[4] = Group S5: 5 mg oral once daily for 12 weeks
[5] = Group S10: 10 mg oral once daily for 12 weeks
[6] = Group B: 20 mg oral once daily for 12 weeks

## O=C(O[C@H]1CN2CCC1CC2)N1CCc2ccccc2[C@@H]1c1ccccc1 [solifenacin succinate, (3R)-quinuclidin-3-yl (1S)-1-phenyl-1,2,3,4-tetrahydroisoquinoline-2-carboxylate]
[1]; [4]
  Difference of change in the number of micturitions from that in Group P: −1.02
  Difference of change in the number of urinary incontinence episodes from that in Group P: −0.85
  Difference of change in the number of urinary urgency episodes from that in Group P: −1.13
  Mean change in the number of micturitions: −1.93
  Mean change in the number of urinary incontinence episodes: −1.58
  Mean change in the number of urinary urgency episodes: −2.38
[1]; [5]
  Difference of change in the number of micturitions from that in Group P: −1.26
  Difference of change in the number of urinary incontinence episodes from that in Group P: −0.88
  Difference of change in the number of urinary urgency episodes from that in Group P: −1.56
  Mean change in the number of micturitions: −2.17
  Mean change in the number of urinary incontinence episodes: −1.61
  Mean change in the number of urinary urgency episodes: −2.81
[2]; [4]
  Difference of change in the number of micturitions from that in Group P: −0.56
  Difference of change in the number of urinary incontinence episodes from that in Group P: −1.19
  Difference of change in the number of urinary urgency episodes from that in Group P: −1.03
  Mean change in the number of micturitions: −2.04
  Mean change in the number of urinary incontinence episodes: −1.80
  Mean change in the number of urinary urgency episodes: −2.86
[2]; [5]
  Difference of change in the number of micturitions from that in Group P: −1.11
  Difference of change in the number of urinary incontinence episodes from that in Group P: −0.79
  Difference of change in the number of urinary urgency episodes from that in Group P: −0.60
  Mean change in the number of micturitions: −2.59
  Mean change in the number of urinary incontinence episodes: −1.40
  Mean change in the number of urinary urgency episodes: −2.43
[2]
  improving effect on pollakiuria (in words): improving effect on pollakiuria was observed
  improving effect on urinary incontinence (in words): improve all the symptoms of urinary urgency, pollakiuria and urinary incontinence
  improving effect on urinary urgency (in words): improving effect on urinary urgency was observed
[3]
  doses that increased the bladder capacity: ≥ 0.03 mg/kg
  doses that increased the voided volume: ≥ 0.03 mg/kg

## CCCOC(C(=O)OC1CCN(C)CC1)(c1ccccc1)c1ccccc1 [propiverine hydrochloride, reference compound]
[1]; [6]
  Difference of change in the number of micturitions from that in Group P: −0.99
  Difference of change in the number of urinary incontinence episodes from that in Group P: −0.50
  Difference of change in the number of urinary urgency episodes from that in Group P: −1.08
  Mean change in the number of micturitions: −1.90
  Mean change in the number of urinary incontinence episodes: −1.23
  Mean change in the number of urinary urgency episodes: −2.33
[2]; [6]
  Difference of change in the number of micturitions from that in Group P: +0.23
  Difference of change in the number of urinary incontinence episodes from that in Group P: −1.01
  Difference of change in the number of urinary urgency episodes from that in Group P: +0.18
  Mean change in the number of micturitions: −1.25
  Mean change in the number of urinary incontinence episodes: −1.62
  Mean change in the number of urinary urgency episodes: −1.65
[2]
  improving effect on pollakiuria (in words): no improving effect on pollakiuria was observed
  improving effect on urinary incontinence (in words): improved urinary incontinence
  improving effect on urinary urgency (in words): improving effect on urinary urgency was not observed
[3]
  doses that increased the bladder capacity: ≥ 1 mg/kg
  doses that increased the voided volume: ≥ 0.3 mg/kg
